Experiment: Human HepG2 cell viability assay in 384 well format
Type: toxicity, cell-based
Design: dose 125 nL, time 70.5 hour; concentration not given beside the values
Settings: HepG2 cells, read-out: Inhibition

SMILES | cytotoxicity at 70.5 h [%]
COc1c(C2CCCN2C(=O)c2ccoc2)c(C)nn1C (stereo not given) | 13.3
Cc1cc(NC(=O)CN2CCCC2c2noc(C3CC3)n2)on1 (stereo not given) | -7.03
Cc1nnc(NC(=O)CN2CCCC2c2noc(C3CC3)n2)s1 (stereo not given) | 21.8
O=S1(=O)CCN(c2nc(C3CC3)ns2)CC1 | -5.98
C1CN(c2nc(C3CC3)ns2)CCS1 | -1.41
O=C(NCCOc1ncc(Cl)cc1Cl)NCc1ccncc1 | -1.68
O=C(CCc1ccncc1)NCCOc1ncc(Cl)cc1Cl | -6.13
Cc1nccn1-c1cc(CNC(=O)COCC2CC2)ccn1 | -6.02
CC(C)n1cc(CN2CCCN(C(=O)c3ccco3)CC2)cn1 | 21
Cc1cccc(N(CCC(N)=O)CC(=O)Nc2cc(Cl)ccc2Cl)c1 | -5.69
Cc1ccc(C(=O)NCCCn2cncn2)c(=O)[nH]1 | 21.9
COc1c(C)cnc(CN(C)C(=O)c2cccc(NC(N)=O)c2)c1C | -2.3
Cc1cccc(N(CCC(N)=O)CC(=O)NC2CCCC2)c1 | 18
COCc1cccc(NC(=O)N(C)Cc2ncc(C)c(OC)c2C)c1 | -3.88
CC1CN(C)CCN1C(=O)c1ccc(-n2cnnc2)cc1 (stereo not given) | -1.59
COc1c(C)cnc(CN(C)C(=O)Nc2ccc3c(c2)CCO3)c1C | 19
COC(=O)c1ccc(NC(=O)CCc2ccncc2)c(C)c1 | -11.9
Cc1ccoc1C(=O)N(CCN(C)C)Cc1ccccn1 | -2.01
COc1ccccc1C(C)CC(=O)N1CCCS1(=O)=O (stereo not given) | -5.37
Cc1cc(C(C)NC(=O)Cn2nc(C)c3ccccc3c2=O)c(C)o1 (stereo not given) | 18.3

SMILES | cytotoxicity at 70.5 h [%]
CC(C)c1cc(C(=O)NCC2(C(N)=O)CCOCC2)nn1C(C)(C)C | -4.75
CC1CCN(CC(=O)NC(C#N)c2cnn(-c3ccccc3)c2)CC1 (stereo not given) | -2.96
Cc1cc(N2CCC(NC(C)Cc3ccsc3)CC2)nc(C)n1 (stereo not given) | -2.86
COc1cccc(F)c1C(C)NC(=O)NCc1cc(C(C)C)no1 (stereo not given) | -12.9
COCCN(CCOC)c1ncccc1I | -4.47
COC(=O)CCC(=O)NC1CCCc2cc(OC(F)F)ccc21 (stereo not given) | -13
Cc1ccc(S(=O)(=O)NC(=O)CCOCc2ccccc2)s1 | -10.6
CCC(Nc1nnnn1-c1ccccc1)C(=O)Nc1ccccc1C (stereo not given) | -11
Cc1cccc(-c2nnc(C(C)N3CCn4c(C)nnc4C3)o2)c1 (stereo not given) | -12.4
Cc1cc(OCc2cccc(F)c2)ccc1NC(=O)C(C)NC(N)=O (stereo not given) | 5.5
CCC(Nc1nnnn1-c1ccccc1)C(=O)NC1CCSCC1 (stereo not given) | -9.32
CCc1ccc(C(=O)O)cc1S(=O)(=O)Nc1ccc(=O)n(C)c1 | 5.54
CCC1CN(C(=O)c2cnc(-c3cnn(C)c3)s2)CCO1 (stereo not given) | -6.34
CCNC(=O)N(C)C(c1cccnc1)C(C)C (stereo not given) | -9.88
O=C(Cc1ccc(S(=O)(=O)C(F)F)cc1)N1CCC1 | -10.6
Cc1cnn(CC(=O)NC2CCCc3cc(OC(F)F)ccc32)c1 (stereo not given) | -6.6
O=C(CS(=O)(=O)C1CCCC1)NC1CCCc2cc(OC(F)F)ccc21 (stereo not given) | -9.47
Cc1ccsc1C(=O)Nc1cc(Br)c(=O)n(C)c1 | -8.88
Cc1csc(C(C#N)C(=O)NCc2cccnc2)n1 (stereo not given) | -5.59
Cc1ccc(OCC(C)NS(=O)(=O)N(C)C)cc1 (stereo not given) | -5.84

SMILES | cytotoxicity at 70.5 h [%]
c1ccc(Cn2ccnc2CNC2CCCOc3ccccc32)cc1 (stereo not given) | -6.62
COCCCN(C)c1ncccc1I | 8.68
Cc1nc(CN(C)C2CCN(Cc3nc4c(F)cccc4[nH]3)C2)no1 (stereo not given) | 4.6
COCC(O)CN(C)c1ccnc2cc(F)ccc12 (stereo not given) | 13.1
CSCc1cc(F)ccc1CNCc1ccncc1 | 4.11
O=C(Nc1nccs1)C1CCN(Cc2cccc3c2OCCO3)CC1 | 6.98
Cc1csc(NC(=O)C2CCN(Cc3cccc4c3OCCO4)CC2)n1 | 8.1
CCN1CCC(CNC(=O)c2cc(Cl)c[nH]2)CC1 | -8.09
NC(=O)[C@@H]1Cc2ccccc2CN1S(=O)(=O)N1CCCCC1 | -1.22
CC(=O)N(C)c1nc(Cn2nnnc2C(C)(C)C)cs1 | -4.99
Cn1cnnc1C1CCN(C(=O)c2cc(-c3ccccc3)on2)CC1 | 25.4
O=C(NCC1(Sc2ccccc2)CC1)c1ccc(=O)[nH]n1 | -6.34
CCC1CCCCCN1C(=O)c1cc(C#N)c(SC)[nH]c1=O (stereo not given) | 24.7
Cc1noc(C)c1C(=O)N1CCCN(C)c2ccc(Cl)cc21 | -3.33
Cc1noc(C)c1C(C)C(=O)N1CCCN(C)c2ccc(Cl)cc21 (stereo not given) | -6.12
CC(C)(C)OC(=O)NC(C)(C(N)=O)c1cccc(Cl)c1 (stereo not given) | 25.4
CC1CCN(C(=O)NCC(=O)N(C)CC(F)(F)F)C1 (stereo not given) | -4.12
CC(C)C1CCN(C(=O)NCC(=O)N(C)CC(F)(F)F)CC1 | 20.8
COCCC(=O)NC(C)(C(N)=O)c1cccc(Cl)c1 (stereo not given) | -3.41
Cc1ccc(CNC(c2cccc(F)c2)c2nccn2C)o1 (stereo not given) | -3
